Numbering of substitutions follows the chain as printed. Entries after “also recorded” stand apart in the source; their conditions may differ. Where two headings read alike, the source gives them in different places.
Experiments:
[1] = target: T1, His-tagged ERR3 LBD / GST-tagged SRC-1 RID complex (Homo sapiens, UniProt P62508); assay: In vitro protein-protein interaction assay, wt ERR3 LBD with SRC-1 RID (native gel); type: biochemical; conditions: 10^−4M ligand
T1 construct: cDNA fragments encoding wt or mutant ERR3 LBDs (residues 229 to 458, human and murine receptor are identical) were generated by PCR; made in house; host or cells: E. coli BL21 (DE3)
T1 sequence (P62508 229-458): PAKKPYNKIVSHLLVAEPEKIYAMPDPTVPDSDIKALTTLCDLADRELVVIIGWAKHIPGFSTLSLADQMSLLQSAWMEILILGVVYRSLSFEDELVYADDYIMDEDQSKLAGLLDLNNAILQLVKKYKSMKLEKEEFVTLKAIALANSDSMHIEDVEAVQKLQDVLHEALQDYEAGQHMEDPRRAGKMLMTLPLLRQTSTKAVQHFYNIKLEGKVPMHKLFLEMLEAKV
Procedure: (§1) The His-tagged wt or mutant ERR3 LBDs, the GST-tagged SRC-1 RID, and GST were expressed in E. coli BL21 (DE3) and partially purified by affinity chromatography using TALON (Clontech) or Glutathione Sepharose 4B (Pharmacia), respectively. […] After purification the proteins were dialyzed in assay buffer (20 mM Tris.HCl pH 8.0, 200 mM NaCl), and concentrated. For the protein-protein interaction assays […] (about 70 pmol) of His-tagged wt or mutant ERR3 LBD were mixed with […] (about 100 pmol) of GST-tagged SRC-1 RID or […] of GST and incubated on ice for 10 mins. […] Protein complexes were resolved on native polyacrylamide gradient gels (8%-25%) using the Phast System (Pharmacia).
(§2) In vitro interaction assays with the RID (amino acids 617-764) of the coactivator SRC-1 has first been performed. Hexahistidine (His)-tagged ERR3, LBD and GST-tagged SRC-1 RID were partially purified by affinity chromatography, the proteins were mixed, and complex formation was monitored on native polyacrylamide gels. […] Complexes were separated on native polyacrylamide gradient gels.

[2] = system: mutant ERR3 LBDs (A272F, A272L, F435L, L345I, L345I-F435L, L345I-F435L-F450L) / GST-SRC-1 RID complex; assay: In vitro protein-protein interaction assay, mutant ERR3 LBDs with SRC-1 RID (native gel); type: biochemical, human; conditions: 10^−4M 4-OHT
Procedure: as §1, §2
In addition, the ligand-binding pocket of ERR3 has been enlarged by either mutating F435 to leucine or by introducing a triple point mutation (L345I-F435L-F450L) which creates an “ERα-like” ligand-binding pocket.

Gal4-ERR3 = target: T2, Gal4-ERR3 (Homo sapiens, UniProt P62508); assay: Transient transfection luciferase reporter assay, Gal4-ERR3 (wt LBD) in COS-1 cells; type: cell-based
T2 construct: cDNA fragments encoding wt or mutant ERR3 LBDs (residues 229 to 458, human and murine receptor are identical) were generated by PCR; expressed in transfected cells; host or cells: COS-1 cells (also Neuro2A and BHK)
T2 sequence (P62508 229-458): T1 sequence (P62508 229-458)
Procedure: (§3) COS-1 and BHK cells were cultured in DMEM supplemented with 5% FCS, penicillin, streptomycin, and glutamine. Neuro2A cells were cultured in EMEM supplemented with 10% FCS, penicillin, streptomycin, glutamine, and non-essential amino acids. Transient transfection assays were carried out in 24-well plates (0.5×10^5 cells per well for COS-1 and Neuro2A cells, 0.25×10^5 cells per well for BHK cells) using the standard calcium phosphate coprecipitation technique as described in Greiner et al. (Greiner et al., 1996). Cells were transfected with 250 ng of Gal4(5×)-TATA-LUC, Gal4(3×)-TK-LUC, or ERE(2×)-TK-LUC reporter plasmid and 50 ng per well of pCMX-Gal4-ERR3 or pCMX-ERR3 expression plasmid. The empty plasmids pCMX-Gal4 and pCMX served as control. […] Luciferase activity was assayed as described in Greiner et al. (1996). All experiments were repeated at least three times.
(§4) Finally, it has been asked whether ERR3 could activate transcription independently of a putative endogenous ligand. The wt and mutant ERR3 LBDs were fused to the DNA-binding domain of Gal4, and Gal4-ERR3 fusion proteins were tested for their potential to activate transcription in transient transfection assays using synthetic reporters in eukaryotic cell lines. […]

[3] = system: Gal4-ERR3 mutants (A272F, A272L, F435L, L345I-F435L-F450L); assay: Transient transfection luciferase reporter assay, mutant Gal4-ERR3 fusion proteins in COS-1 cells; type: cell-based, human; conditions: 10^−6M 4-OHT
Procedure: as §3, §4

full length ERR3 = full length ERR3 (Homo sapiens, UniProt P62508); assay: Transient transfection with ERE(2×)-TK-LUC reporter, full length ERR3; type: cell-based; conditions: in the presence of 4-OHT
Procedure: as §3

ERR3 [4] = target: T3, ERR3 (Homo sapiens, UniProt P62508); conditions: Coward et al. (2001); cited from earlier work
T3 sequence (P62508 1-458): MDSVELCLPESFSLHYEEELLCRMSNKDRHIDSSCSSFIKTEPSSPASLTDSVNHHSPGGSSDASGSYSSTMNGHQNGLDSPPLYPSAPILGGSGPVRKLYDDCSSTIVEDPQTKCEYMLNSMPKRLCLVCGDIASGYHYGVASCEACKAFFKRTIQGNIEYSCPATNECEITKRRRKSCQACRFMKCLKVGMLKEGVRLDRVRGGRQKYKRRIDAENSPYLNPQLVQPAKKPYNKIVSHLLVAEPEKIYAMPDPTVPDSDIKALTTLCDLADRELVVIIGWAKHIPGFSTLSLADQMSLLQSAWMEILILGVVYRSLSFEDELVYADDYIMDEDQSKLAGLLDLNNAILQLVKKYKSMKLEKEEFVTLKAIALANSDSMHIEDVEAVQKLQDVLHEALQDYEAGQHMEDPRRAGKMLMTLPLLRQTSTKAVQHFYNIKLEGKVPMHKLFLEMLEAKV

ERR1, ERR2 and ERR3 = conditions: Coward et al., 2001 / reported, cited from earlier work
ERR3 [5] = target: T3, ERR3; conditions: Coward et al. (2001); cited from earlier work; remark: listed apart in the source
ERRα = target: T4, ERRα (Homo sapiens, UniProt P11474); conditions: micromolar concentrations; Yang and Chen (1999); cited from earlier work
T4 sequence (P11474 1-423): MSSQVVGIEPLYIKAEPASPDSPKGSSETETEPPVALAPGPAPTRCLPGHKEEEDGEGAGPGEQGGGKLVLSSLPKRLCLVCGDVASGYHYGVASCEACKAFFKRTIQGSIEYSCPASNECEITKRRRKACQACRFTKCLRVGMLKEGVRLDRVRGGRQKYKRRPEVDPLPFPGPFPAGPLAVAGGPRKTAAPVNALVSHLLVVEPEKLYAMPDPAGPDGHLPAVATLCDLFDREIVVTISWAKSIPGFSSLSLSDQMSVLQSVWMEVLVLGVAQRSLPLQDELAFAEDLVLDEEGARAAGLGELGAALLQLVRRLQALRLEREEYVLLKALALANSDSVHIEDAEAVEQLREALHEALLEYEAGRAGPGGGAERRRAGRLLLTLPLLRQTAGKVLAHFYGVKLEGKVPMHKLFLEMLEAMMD

[6] = target: T5, ERR1 mutant F328 to alanine (Homo sapiens, UniProt P11474, F232A); conditions: Chen S et al., 2001; cited from earlier work
T5 sequence (P11474 1-423 F232A): T4 sequence (P11474 1-423) with F232A

4-hydroxytamoxifen [4-OHT]
conformational change of the ERR3 LBD (migration on native gels) [1]: significant conformational change
disruption of the ERR3 LBD/GST-SRC-1 RID complex ([1]; native polyacrylamide gradient gel): specifically disrupted
disruption of the mutant ERR3 LBD/GST-SRC-1 RID complex ([2]; mutant F435L): still disrupted
disruption of the mutant ERR3 LBD/GST-SRC-1 RID complex ([2]; mutants A272F or A272L): no effect is observed
antagonist action on mutant ERR3 LBD in vitro ([2]; mutants F435L, L345I-F435L, L345I-F435L-F450L): still acts as an antagonist
repression of Gal4-ERR3 constitutive activity below basal levels of the TK promoter (Gal4-ERR3; Gal4(3×)-TK-LUC reporter): neither 4-OHT nor DES repress the constitutive activity of Gal4-ERR3 below basal levels
transcriptional activity of Gal4-ERR3 (Gal4-ERR3; Gal4(5×)-TATA-LUC reporter, 10^−6M 4-OHT): blocked efficiently
transcriptional activity of Gal4-ERR3 mutants ([3]; Gal4-ERR3(A272F) or Gal4-ERR3(A272L)): but not of Gal4-ERR3(A272F) or Gal4-ERR3(A272L)
transcriptional activity of Gal4-ERR3 mutants ([3]; Gal4-ERR3(F435L) and Gal4-ERR3(L345I-F435L-F450L)): antagonizes the transcriptional activity
active repression of transcription of the TK promoter by full length ERR3 (full length ERR3): does not actively repress transcription of the TK promoter
effect on ERR3 transcriptional activity (ERR3 [4]): repressed transactivation; also recorded: selectively block the transcriptional activity of ERR3
binding to ERR isotypes (ERR1, ERR2 and ERR3; listed as 40HT): binds both ERR2 and ERR3
binding to ERR isotypes (ERR1, ERR2 and ERR3): does not bind ERR1; also recorded: binds to ERR2 and ERR3 but not to ERR1
affinity of binding to ERR3 (ERR3 [5]): submicromolar

ClC1=C(Cl)C2(Cl)C3C(Cl)C(Cl)CC3C1(Cl)C2(Cl)Cl (centres unmarked) [chlordane]
effect on ERRα basal activity (ERRα): decrease ERRα basal activity

CC1(C)C(C(Cl)Cl)C2(Cl)C(Cl)C(Cl)C1(Cl)C2(Cl)Cl (centres unmarked) [toxaphene]
effect on ERRα basal activity (ERRα): decrease ERRα basal activity
activation of ERR1 F328A mutant [6]: can be activated by toxaphene

Reference: patent US20050208490A1, “Ligand binding pocket peptide fragment of estrogen-related receptor 3 (err3) and uses thereof” (priority 2002, published 2005)
